Data taken from US8507677B2, “Fluorescent probe” (The University of Tokyo, priority 2007, dated 2013).

Assay: pKa values of pH probes (control of pKa by changing structure)
Type: physicochemical
Settings: pH probe
From the text: By using the pH probe described in the present invention, change of pH can be detected in a range including pKa of the compound according to the fluorescence ratio method or the absorbance ratio method. Compounds 1 to 5 have different pKa values, and accordingly, pH ranges suitable for the detection are different among them. Therefore, a pH probe suitable for a pH range desired to be detected can be chosen and used by utilizing the difference. Similarly, by suitably choosing R^3, R^4 and/or R^5 in the general formula (I), or R^13, R^14 and/or R^15 in the general formula (IA), a pH probe having a desired pKa and thus suitable for measurement of a desired pH range can be designed and provided.

| pKa | Structure (SMILES) |
| --- | --- |
| 8.7 | CCN(CC)CCN(C)C1=C(/C=C/C2=[N+](C)c3ccccc3C2(C)C)CCC/C1=C\C=C1\N(C)c2ccccc2C1(C)C [Compound 3] |
| 2.1 | CN1/C(=C/C=C2\CCCC(/C=C/C3=[N+](C)c4ccccc4C3(C)C)=C2N2CCN(c3ccccc3)CC2)C(C)(C)c2ccccc21 [Compound 5] |
| 6.8 | CN1CCN(C2=C(/C=C/C3=[N+](C)c4ccccc4C3(C)C)CCC/C2=C\C=C2\N(C)c3ccccc3C2(C)C)CC1 [Compound 4] |
| 8.1 | CN(C)CCN(C)C1=C(/C=C/C2=[N+](C)c3ccccc3C2(C)C)CCC/C1=C\C=C1\N(C)c2ccccc2C1(C)C [Compound 2] |
| 5.5 | CN1/C(=C/C=C2\CCCC(/C=C/C3=[N+](C)c4ccccc4C3(C)C)=C2N2CCN(Cc3ccccc3)CC2)C(C)(C)c2ccccc21 [Compound 1] |
